# Calls of active or inactive are those of the source. The calls are words filed in the database; no cut-off is given here.
# What was measured:
# KMS-12-PE = assay: Cytotoxicity against human KMS-12-PE cells measured after 3 days; format: functional, cell-based; details: 72 h
# KU812 cell line = assay: Cytotoxicity against human KU812 cell line measured after 3 days; format: functional, cell-based; details: KU812, 72 h
# LN-18 = assay: Cytotoxicity against human LN-18 cells measured after 3 days; format: functional, cell-based; details: LN-18, 72 h
# [1] = molecular target: T1, Bromodomain-containing protein 9 (Homo sapiens) (UniProt Q9H8M2); assay: Binding affinity to BRD9 in human PC-9 cell lysate assessed as increase in thermal stabilization at 2 uM at 44 to 50 degreeC measured after 30 mins by CETSA; format: subcellular
# T1 sequence (whole entry): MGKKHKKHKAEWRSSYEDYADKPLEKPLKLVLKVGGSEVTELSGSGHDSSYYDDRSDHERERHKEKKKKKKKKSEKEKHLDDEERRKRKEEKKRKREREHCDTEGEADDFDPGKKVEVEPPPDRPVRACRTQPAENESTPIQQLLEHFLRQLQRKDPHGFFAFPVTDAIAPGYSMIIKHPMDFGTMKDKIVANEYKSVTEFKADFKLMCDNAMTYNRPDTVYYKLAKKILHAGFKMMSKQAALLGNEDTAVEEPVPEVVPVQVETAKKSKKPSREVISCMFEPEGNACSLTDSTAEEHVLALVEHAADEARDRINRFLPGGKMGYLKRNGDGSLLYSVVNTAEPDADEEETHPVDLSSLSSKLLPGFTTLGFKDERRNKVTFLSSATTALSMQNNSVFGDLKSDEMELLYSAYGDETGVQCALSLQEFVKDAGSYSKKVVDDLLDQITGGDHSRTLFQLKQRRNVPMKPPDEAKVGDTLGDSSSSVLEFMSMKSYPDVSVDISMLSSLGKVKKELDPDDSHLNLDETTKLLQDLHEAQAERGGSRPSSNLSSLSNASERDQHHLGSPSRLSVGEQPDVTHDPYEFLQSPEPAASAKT
# [2] = Cytotoxicity against human KMS-26 cells measured after 3 days; format: functional, cell-based; details: KMS-26, 72 h
# SU-DHL-16 = assay: Cytotoxicity against human SU-DHL-16 cells measured after 3 days; format: functional, cell-based; details: SU-DHL-16, 72 h
# [3] = Cytotoxicity against human TYK-nu.CP-r cells measured after 3 days; format: functional, cell-based; details: 72 h
# SU-DHL-8 = assay: Cytotoxicity against human SU-DHL-8 cells measured after 3 days; format: functional, cell-based; details: SU-DHL-8, 72 h
# SET-2 = assay: Cytotoxicity against human SET2 cells measured after 3 days; format: functional, cell-based; details: SET-2, 72 h
# [4] = Cytotoxicity against human MOR cells measured after 3 days; format: functional, cell-based; details: 72 h
# LN-229 = assay: Cytotoxicity against human LN-229 cells measured after 3 days; format: functional, cell-based; details: LN-229, 72 h
# [5] = Cytotoxicity against human KMS-21BM cells measured after 3 days; format: functional, cell-based; details: 72 h
# NCI-H647 = assay: Cytotoxicity against human NCI-H647 cells measured after 3 days; format: functional, cell-based; details: NCI-H647, 72 h
# [6] = Cytotoxicity against human BM-1604 cells measured after 3 days; format: functional, cell-based; details: BM-1604, 72 h
# SNU-398 = assay: Cytotoxicity against human SNU-398 cells measured after 3 days; format: functional, cell-based; details: SNU-398, 72 h
# [7] = Cytotoxicity against human NCI-H2073 cells measured after 8 days; format: functional, cell-based; details: NCI-H2073, 192 h
# [8] = Cytotoxicity against human RKOE6 cells measured after 3 days; format: functional, cell-based; details: RKOE6, 72 h
# PA-1 = assay: Cytotoxicity against human PA-1 cells measured after 3 days; format: functional, cell-based; details: PA-1, 72 h
# KMS-12-BM = assay: Cytotoxicity against human KMS-12-BM cells measured after 3 days; format: functional, cell-based; details: 72 h
# [9] = Cytotoxicity against human COLO-704 cells measured after 3 days; format: functional, cell-based; details: COLO 704, 72 h
# [10] = Cytotoxicity against human HCC1428 cells measured after 3 days; format: functional, cell-based; details: HCC1428, 72 h
# NCI-H520 = assay: Cytotoxicity against human NCI-H520 cells measured after 3 days; format: functional, cell-based; details: NCI-H520, 72 h
# REH = assay: Cytotoxicity against human REH cells measured after 8 days; format: functional, cell-based; details: 192 h
# HCC1954 = assay: Antiproliferative activity against human HCC1954 cells assessed as reduction in colony formation upto 20 uM supplemented with fresh medium containing compound every 3 days for 9 days by MTT staining based clonogenic assay; format: functional, cell-based; details: time 9.0 day
compound,measurement,setting,value
C/C=C/Cn1cc(-c2cc(OC)c(C(=O)N3CCOCC3)cc2OC)c2cc(C)[nH]c2c1=O,IC50,KMS-12-PE,5 µM
same,IC50,KU812 cell line,5 µM
same,IC50,LN-18,5 µM
same,Activity,[1],Active
same,IC50,[2],5 µM
same,IC50,SU-DHL-16,5 µM
same,IC50,[3],5 µM
same,IC50,SU-DHL-8,5 µM
same,IC50,SET-2,5 µM
same,IC50,[4],5 µM
same,IC50,LN-229,5 µM
same,IC50,[5],5 µM
same,IC50,NCI-H647,5 µM
same,IC50,[6],5 µM
same,IC50,SNU-398,5 µM
same,IC50,[7],2 µM
same,IC50,[8],5 µM
same,IC50,PA-1,5 µM
same,IC50,KMS-12-BM,5 µM
same,IC50,[9],5 µM
same,IC50,[10],5 µM
same,IC50,NCI-H520,5 µM
C/C=C/Cn1cc(-c2ccc(C(C)(C)O)cc2OC)c2cc[nH]c2c1=O,IC50,REH,20 µM
same,Activity,HCC1954,Active
